Assay results from PMC3454376, “Salidroside Improves Behavioral and Histological Outcomes and Reduces Apoptosis via PI3K/Akt Signaling after Experimental Traumatic Brain Injury” (PLoS ONE, 2012).

What was measured:
Type in all cases: in vivo, mice
[1] = tested on: p-Akt Ser473; experiment: Western blot, injured cortex; conditions: for p-Akt Ser473 level, % of the vehicle level: 20 mg/kg ip 10 min after CCI
Procedure: (§1) Mice were anesthetized and positioned in a stereotaxic frame. LY294002 (200 nM in 0.5 µL of saline) or equal amount of physiological saline was intracerebroventricularly (icv) injected at 30 min before CCI as previously described. A 1 mm cranial burr hole was drilled into the skull. A 30-gauge needle on a Hamilton syringe was implanted into the lateral ventricle using stereotactic coordinates: 1.5 mm posterior to bregma and 1.0 mm right lateral to the midline, 2 mm in depth. LY294002 or saline was infused into the brain at a rate of 0.05 µL/min over 10 min with an infusion pump (KDS 310, KD Scientific Inc., Holliston, MA, USA), and the needle was left in place for an additional 20 min to prevent reflux. After the needle was removed, CCI procedure was conducted immediately. Sham-operated mice were infused icv with saline, but were not subjected to CCI.
(§2) Three sets of experiments were performed. The first set was to investigate the protective effects of salidroside. All animals were randomized into 1 of 3 groups (sham injury, CCI + vehicle, CCI + SALD 20). Surgery/injury, behavioral testing, and tissue analyses were performed by different individuals. Behavioral testing and tissue analyses were performed by individuals blinded to the treatment group. Salidroside (Cayman Chemical, Ann Arbor, MI, USA) dissolved in normal saline (0.25 mL) or a corresponding volume of vehicle (saline) was administered intraperitoneally 10 min following injury. Testing after injury was completed as follows: 1) behavioral testing at days 1, 4, 7, 14, 21, and 28 (n = 8–10 mice/group); 2) cresyl violet staining at day 28 (n = 9 mice/group); 3) histology, determination of brain water content, and western blot analysis at day 1 or 3 (n = 5–6 mice/group). To determine the optimal dose of salidroside, a pilot study was performed using 2 different doses (20 and 50 mg/kg) administered 10 min after injury, and neurological deficits and tissue damage were evaluated as the main outcomes. […] The second set of experiment was to assess the effect of the inhibition of PI3K/Akt with the specific PI3K inhibitor, LY294002 (Cell Signaling Technology, Danvers, MA, USA), on salidroside effects. Animals were randomized into 4 groups. Mice received either: 1) icv pretreatment of LY294002 followed by SALD 20 after CCI (S20Y group); or 2) icv pretreatment of saline (vehicle control) followed by SALD 20 after CCI (S20V group). 3) Mice were infused icv with saline and were subjected to sham injury. 4) Mice were infused icv with LY294002 and were subjected to sham injury. Testing after injury was completed as follows: 1) cresyl violet staining at day 28 (n = 6 mice/group); 2) western blot analysis at day 1 (n = 6 mice/group). The third set of experiment was performed to examine the neuroprotective time window afforded by salidroside. Mice received intraperitoneal SALD 20 or vehicle (saline) at 3 or 6 h following CCI and were sacrificed 1 day later for FJB staining and western blot analysis (n = 6 mice/group).
(§3) Brains of injured or sham animals were collected 1 day and 3 days post CCI or sham surgery, and a 4 mm coronal section from the injured area over the parietal cortex and ipsilateral hippocampus were collected. The protein samples were obtained from tissue homogenates in 300 µL of ice-cold reagent (T-PER reagent; Pierce Biotechnology, Rockford, IL, USA) with a complete mini protease inhibitor cocktail (Roche Molecular Biochemicals) centrifuged at 14000g for 30 min. Protein concentration was determined by Bradford reagent spectrophotometrically at A595. Equal amounts of protein samples were denatured in gel-loading buffer at 100°C for 5 min, and then loaded onto sodium dodecyl sulfate-polyacrylamide gels to be separated. Separated proteins were transferred to Immobilon-P membranes (Millipore, Billerica, MA, USA), blocked with the use of 5% milk in PBST and probed with primary antibodies. […]

[2] = tested on: p-Akt Thr308; experiment: Western blot, injured cortex
Procedure: as §1, §2, §3

[3] = tested on: p-Bad; experiment: Western blot, injured cortex; conditions: 20 mg/kg ip 10 min after CCI; days 1 and 3; P>0.05
Procedure: as §1, §2, §3

[4] = tested on: p-FOXO1; experiment: Western blot, injured cortex; conditions: 20 mg/kg ip 10 min after CCI; days 1 and 3; P>0.05
Procedure: as §1, §2, §3

[5] = Metabolic characteristics: serum BUN, CRE, ALT; conditions: for BUN / CRE: mean ± SEM, n = 4–5 mice/group
Procedure: as §2
Following terminal anesthesia, venous blood was collected via direct right atrial puncture. The obtained blood was centrifuged (3500 rpm for 5 min), and the serum was stored at −20°C until analysis. A chemistry analyzer (Synchron Clinical System LX20; Beckman Coulter, Fullerton, CA, USA) was used to measure serum BUN and CRE to assess renal function, and ALT to assess liver function.

[6] = 20 mg/kg ip 10 min after injury, day 1

## OC[C@H]1O[C@@H](OCCc2ccc(O)cc2)[C@H](O)[C@@H](O)[C@@H]1O [SALD, salidroside]
[1]; day 1, P<0.05
  p-Akt Ser473 level, % of the vehicle level: 200.7%
[1]; day 3, P>0.05
  p-Akt Ser473 level, % of the vehicle level: 146.9%
[1]; [6]
  increase of p-Akt Ser473 level: 100.7%
[1]; 20 mg/kg ip 3 h after injury, day 1
  change of p-Akt Ser473 level (attenuated by): 46.2%
[2]; 20 mg/kg ip 10 min after CCI, day 3, P<0.05
  p-Akt Thr308 level, % of the vehicle level: 176.0%
[2]; [6]
  increase of p-Akt Thr308 level: 30.3%
[2]; 20 mg/kg ip 3 h after injury, day 1, not significant
  change of p-Akt Thr308 level (attenuated by): 19.5%
[3]
  p-Bad level versus vehicle group: no difference
[4]
  p-FOXO1 level versus vehicle group: no difference
[5]; 20 mg/kg
  plasma concentrations of BUN, CRE, ALT (effect of treatment): did not alter
[5]; SALD 20 mg/kg
  BUN: 23.2 ± 2.49 mg/dL
  CRE: 0.17 ± 0.01 mg/dL
[5]; SALD 50 mg/kg
  BUN: 28.06 ± 4.5 mg/dL
  CRE: 0.16 ± 0.04 mg/dL
